System: WiDr cells expressing the human NTS1R
Assay: Cell uptake / internalization assay in WiDr cells
Type: cell-based
Conditions: confluent WiDr cells, 1 h, 37 °C, 250 fmol peptide, non-specific (1 μM NT) subtracted, average ± sd of 3 experiments in triplicate; for internalized fraction vs total added activity: acid wash then lysis
Procedure: Human colorectal adenocarcinoma WiDr cells (LGC Promochem, Teddington, UK) expressing the human NTS1R [52] were cultured in McCoy’s GLUTAMAX-I (Gibco BRL, Life Technologies, Grand Island, NY, USA) supplemented by 10% (v/v) fetal bovine serum (FBS), 100 U/mL penicillin and 100 μg/mL streptomycin (all from Biochrom KG Seromed, Berlin, Germany). Cells were kept in a controlled humidified atmosphere containing 5% CO2 at 37 °C. Passages were performed every 4–5 days using a trypsin/EDTA (0.05%/0.02% w/v) solution. The overall cell association–internalization of ^99mTc-DT1, ^99mTc-DT5 and ^99mTc-DT6 was assessed in confluent WiDr cells. Briefly, the cells were seeded in six-well plates (~1 × 10^6 cells per well) 24 h before the experiment. Each of ^99mTc-DT1, ^99mTc-DT5 and ^99mTc-DT6 (approximately 150,000 cpm, 250 fmol total peptide in 150 μL of 0.5% BSA/PBS) was added alone (total) or in the presence of 1 μM NT (non-specific). Cells were incubated at 37 °C for 1 h and incubation was interrupted by placing the plates on ice, removing the supernatants and rapid rinsing with ice-cold 0.5% BSA/PBS. Cells were then treated 2 × 5 min with acid wash buffer (2 × 0.6 mL, 50 mM glycine buffer, pH 2.8, 0.1 M NaCl) at room temperature and supernatants were collected (membrane-bound fraction). After rinsing with 1 mL chilled 0.5% BSA/PBS, cells were lyzed by treatment with 1 N NaOH (2 × 0.6 mL) and lysates were collected (internalized fraction). Sample radioactivity was measured in the γ-counter (an automated well-type gamma counter with a NaI(Tl) 3′′ crystal, Canberra Packard Auto-Gamma 5000 series instrument) and total cell-associated (internalized + membrane bound) radioactivity was determined vs. total added activity. Results represent the average values ± sd of 3 experiments in triplicate.

| Substance | internalized fraction vs total added activity | NTS1R-specific cell uptake (internalized + membrane bound) vs total added activity |
| --- | --- | --- |
| N4-Gly-Arg-Arg-Pro-Tyr-Ile-Leu-OH [^99mTc-DT1, ^99mTc-[N4-Gly^7]NT(7-13), ^99mTc-labeled acyclic tetraamine-coupled NT(7-13) analog DT1] | 6.9 ± 2.1% | 10.1 ± 2.3% |
| N4-βAla-Arg-Dab-Pro-Tyr-Ile-Leu-OH [^99mTc-DT5, ^99mTc-[N4-βAla^7,Dab^9]NT(7-13), ^99mTc-labeled acyclic tetraamine-coupled NT(7-13) analog DT5] | 3.2 ± 0.3% | 3.7 ± 0.3% |
| N4-βAla-Arg-Dab-Pro-Tyr-Tle-Leu-OH [^99mTc-DT6, ^99mTc-[N4-βAla^7,Dab^9,Tle^12]]NT(7-13), ^99mTc-labeled acyclic tetraamine-coupled NT(7-13) analog DT6] | 0.8 ± 0.4% | 1.0 ± 0.4% |

Source: article PMC7356968, “Key-Protease Inhibition Regimens Promote Tumor Targeting of Neurotensin Radioligands” (Pharmaceutics, 2020)
